According to patent US20120309823A1, “PERCUTANEOUS ABSORPTION PREPARATIONS” (priority 1999, published 2012):

- melting point: 118 to 120 °C
Compound: CC(=O)NCC[C@@H]1CCc2ccc3c(c21)CCO3
